# Like-named read-outs stand apart in the source and are kept apart here.
# Legend:
# [1] = test system: allergen-induced airway inflammation and bronchial hyperresponsiveness in a mouse model of asthma; assay: Mouse model of asthma, inhalation, short exposure challenge; conditions: inhalation of Compound I 40 mg/ml in pure DMSO, short-term exposure, vs DMSO alone
# Method: Two protocols referred to as short exposure challenge and long-term exposure challenge were used. […] No inhalations were performed during even weeks.
# (§1) The aerosol were produced by using an ultrasonic nebuliser SYSTAM (Système Assistance Medical, Le Ledat, France), the vibration frequency of which is 2.4 MHz with variable vibration intensity and ventilation levels. Vibration intensity was fixed in position 6 and the ventilation level was 25(v1/2) l/min.
# Twenty-four hours after the last allergen exposure, the bronchial hyper responsiveness was determined by measuring the Penh using a barometric plethysmograph as proposed by Hamelmann, E., et al., Am. […] The Penh was measured at baseline and 5 min after the inhalation of increasing doses (25, 50, 75 and 100 mM) of methacholine (Mch).
# Immediately after the assessment of airway responsiveness, mice were sacrificed and 1 ml of PBS free of ionised calcium and magnesium but supplemented with 0.05 mM sodium EDTA was instilled 4 times via a tracheal cannula and recovered by gentle manual aspiration. The recovered bronchoalveolar lavage fluid (BAL) was centrifuged (1800 rpm for 10 min at 4° C.). The cell pellet was washed twice and finally resuspended in 1 ml of PBS. A total cell count was performed in a Thoma chamber and the differential cell counts on at least 400 cells were performed on cytocentrifuged preparations (Cytospin 2; Cytospin, Shandon td., Runcorn, Cheshire, U.K.) using standard morphologic criteria after staining with Diff-Quick (Dade, Germany). After BAL, the thorax was opened and the left main bronchus was clamped. […] Sections of 5 μm thickness from all lobes were stained with haematoxylin and eosin. The extent of peribronchial infiltrates was estimated by an inflammation score. […] A value from 0 to 3 per criteria was adjudged to each tissue section scored. […] As 5-7 randomly selected tissue sections per mouse were scored, inflammation scores could be expressed as a mean value per animal and could be compared between groups.
# [2] = Phase solubility studies with L-lysine solution as adjuvant (25° C., 7 days, LC); assay type: physicochemical
# Method: Solubility studies were performed as described by Higuchi, T., and Connors, K. A., Advances in Analytical Chemistry and Instrumentation 4 (1965) 117-212. Excess amounts of Compound I were added to increasing concentrations of HP-β-CD (0-200 mM) in 5 ml dissolution media, either purified water or L-lysine solutions (50 mM or 500 mM). The glass containers were sealed and the suspensions were shaken in a water-bath at 25° C. until complexation equilibrium was reached (7 days). An aliquot was filtered through a 0.45 μm PVDF membrane filter and assayed for Compound I content by a validated liquid chromatography (LC) method.
# [3] = test system: aorta ring, formation of new vessels (angiogenesis); assay: Aorta ring model of neovascularisation (inhibition of angiogenesis); assay type: cell-based; conditions: aorta ring in culture medium, final concentration 10^−6 M, 10^−7 M
# From the text: In order to study the potential effects of the complex Compound I-cyclodextrine, a model of neovascularisation has been used. An aorta ring is cut and placed in a culture medium. This culture medium containing either: • no active principle • the complex compound I-cyclodextrins (final concentration 10-^6M, 10^−7M) • compound I dissolved in DMSO with the help of […] (final concentration 10-^6, 10-^7M).
# [4] = Differential solubility in acetonitrile of free and complexed compound I; assay type: physicochemical; conditions: organic solvent or mixture; free compound
# From the text: Compound I has different solubility when it is in the complex form or not. […] In these conditions the included drug remains trapped and becomes insoluble in the solvent. This technique of differential solubility between compound I in the free or in the complexed form can be applied to evaluate the percentage of complexation.
# [5] = test system: allergen-induced airway inflammation in a mouse model of asthma; assay: Mouse model of asthma, intraperitoneal injection of Compound I; assay type: in vivo, mice
# Method: No inhalations were performed during even weeks.
# [6] = test system: allergen-induced airway inflammation in a mouse model of asthma; assay: Mouse model of asthma, inhalation, long-term exposure challenge (11 weeks); conditions: aerosol, long term (11 weeks) allergen exposure, p<0.01
# Method: Intraperitoneal injections were performed 30 min before OVA inhalations. […] Two protocols referred to as short exposure challenge and long-term exposure challenge were used. […] No inhalations were performed during even weeks.
# as §1
# Immediately after the assessment of airway responsiveness, mice were sacrificed and 1 ml of PBS free of ionised calcium and magnesium but supplemented with 0.05 mM sodium EDTA was instilled 4 times via a tracheal cannula and recovered by gentle manual aspiration. […] After BAL, the thorax was opened and the left main bronchus was clamped. […] Another score referred to as tissue eosinophil infiltration score, specifically reflecting the amounts of eosinophils infiltrating the bronchial walls, was measured as follows: after a congo red staining, seven bronchi were studied per mouse. The eosinophils were counted around the bronchi within the limits of the airway wall, the perimeter of the epithelial basement membrane was measured and the results were expressed as number of eosinophils/mm of basement membrane.
# [7] = Phase solubility studies of Compound I with cyclodextrins (excess compound, 7 days, 37° C., HPLC); assay type: physicochemical; conditions: for solubility at 7 days: 37 °C, thermodynamic from solid
# Method: At the time of a complex formation, compound I, practically insoluble in water (<0.6 μg/ml, MW: 485), solubilizes dramatically. The increase in the solubility of compound I is thus proof of a complex formation between Compound I and the CD. Complex formation and achievement of the equilibrium is found at 20% after 1 day, 40% after 4 days, and 100% after 7 days. The solubility diagrams (FIG. 1) are carried out by adding an excess of compound I to the CD solutions of increasing concentration. After 7 days of stirring in thermostatically controlled baths at 37° C., these solutions are filtered and the solubilized compound I quantity is dosed by HPLC. The βCD and the γCD as well as their synthetic derivatives have allowed complexes with compound I to be formed. The β-CD and the HPβCD come from ROQUETTE (France), the RMβCD and the γCD have been supplied by Wacker (Germany).
# The flasks containing compound I and the cyclodextrins are placed being stirred in thermostatically controlled baths at 37° C. for 7 days, so that the complexation balance is reached. After this time, the suspensions are filtered with the help of a milli-pore filter 0.22 μm in PVDF and the filtrate is dissolved in DMSO in the mobile phase to obtain concentration samples situating themselves on the calibrating line. They are then dosed thanks to the validated HPLC method, described below.
# Mobile phase: mixture of phosphate buffer 0.05 M to pH=3 and methanol (30/70, v/v). Gas is extracted by an ultrasound passage for 15 minutes, output: 1 ml/min, λ of U.V. detection: 265 nm, Working temperature: 30° C., Injection volume: 20 μl.
# The results of the HPLC dosages of Compound I are reproduced in the tables below (Tables 1 to 4) for each cyclodextrin.
smiles,measurement,setting,value
"O=C1NC(=O)C(c2ccc(-c3ccccc3)cc2)(N2CCN(c3ccc([N+](=O)[O-])cc3)CC2)C(=O)N1 [Compound I, 5-Biphenyl-4-yl-5-[4-(4-nitro-phenyl)-piperazin-1-yl]pyrimidine-2,4,6-trione]",BAL eosinophils,[1]; p<0.005,significant decrease
same,Peribronchial inflammation scores,[1]; p<0.01,significant decrease
same,Bronchial hyperresponsiveness,[1]; p<0.05,significant decrease
same,Increase of aqueous solubility,"[2]; 200 mM HP-β-CD, absence of L-lysine","approximately 10,000 fold"
same,Increase of aqueous solubility,[2]; 500 mM of L-lysine and 200 mM of HP-β-CD,"70,000 fold"
same,Solubility with HP-β-CD (200 mM),"[2]; Purified Water, 25° C.",5530 µg/mL
same,Angiogenesis (formation of new vessels),[3],inhibited significantly
same,solubility,[4],~700 µg/mL
same,Peribronchial inflammation scores,"[5]; 3.75 to 30 mg/kg, equal efficacy of all tested formulations",significantly lowered
same,Tissue eosinophil infiltration score,[5]; doses of 7.5 and 25 mg/kg,significantly lowered
same,Allergen-induced airway eosinophilic inflammation in BAL,"[5]; solution or precipitate, 3.75 to 30 mg/kg, compared to placebo, OVA-sensitized mice",lowered
same,Tissue eosinophil infiltration score,[6],decreased
same,solubility at 7 days,"[7]; HPβCD solution, aqueous with cosolvent or surfactant or cyclodextrin, HPβCD, maximum concentration used 200 mM, read-out: Maximum solubility",4960 µg/mL
same,Concentration of Compound I (solubility),"[7]; RMβCD 10 mM, 37° C., 7 days",120.6 µg/mL
same,solubility at 7 days,"[7]; RMβCD solution, aqueous with cosolvent or surfactant or cyclodextrin, RMβCD, maximum concentration used 200 mM, read-out: Maximum solubility",11900 µg/mL
same,Complex formation and achievement of the equilibrium,[7]; after 1 day,20%
same,Complex formation and achievement of the equilibrium,[7]; after 4 days,40%
same,Complex formation and achievement of the equilibrium,[7]; after 7 days,100%
same,K1:1 (stability constant),[7]; complex with HP-βCD,12575 M⁻¹
same,K1:2 (stability constant),[7]; complex with HP-βCD,14.4 M⁻¹
same,K1:1 (stability constant),[7]; complex with RMβCD,27595 M⁻¹
same,K1:2 (stability constant),[7]; complex with RMβCD,22.88 M⁻¹
same,K1:1 (stability constant),[7]; complex with βCD,2092 M⁻¹
same,K1:1 (stability constant),[7]; complex with γCD,346 M⁻¹
same,solubility at 7 days,"[7]; cyclodextrin solution, aqueous with cosolvent or surfactant or cyclodextrin, HPβCD 10 mM, 37° C., 7 days, read-out: Concentration of Compound I (solubility)",188 µg/mL
same,solubility at 7 days,"[7]; cyclodextrin solution, aqueous with cosolvent or surfactant or cyclodextrin, HPβCD 25 mM, 37° C., 7 days, read-out: Concentration of Compound I (solubility)",213 µg/mL
same,solubility at 7 days,"[7]; cyclodextrin solution, aqueous with cosolvent or surfactant or cyclodextrin, HPβCD 50 mM, 37° C., 7 days, read-out: Concentration of Compound I (solubility)",236 µg/mL
same,solubility at 7 days,"[7]; cyclodextrin solution, aqueous with cosolvent or surfactant or cyclodextrin, HPβCD 75 mM, 37° C., 7 days, read-out: Concentration of Compound I (solubility)",1130 µg/mL
same,solubility at 7 days,"[7]; cyclodextrin solution, aqueous with cosolvent or surfactant or cyclodextrin, HPβCD 100 mM, 37° C., 7 days, read-out: Concentration of Compound I (solubility)",1660 µg/mL
same,solubility at 7 days,"[7]; cyclodextrin solution, aqueous with cosolvent or surfactant or cyclodextrin, HPβCD 150 mM, 37° C., 7 days, read-out: Concentration of Compound I (solubility)",3110 µg/mL
same,solubility at 7 days,"[7]; cyclodextrin solution, aqueous with cosolvent or surfactant or cyclodextrin, HPβCD 200 mM, 37° C., 7 days, read-out: Concentration of Compound I (solubility)",4960 µg/mL
same,solubility at 7 days,"[7]; cyclodextrin solution, aqueous with cosolvent or surfactant or cyclodextrin, RMβCD 25 mM, 37° C., 7 days, read-out: Concentration of Compound I (solubility)",527 µg/mL
same,solubility at 7 days,"[7]; cyclodextrin solution, aqueous with cosolvent or surfactant or cyclodextrin, RMβCD 50 mM, 37° C., 7 days, read-out: Concentration of Compound I (solubility)",1530 µg/mL
same,solubility at 7 days,"[7]; cyclodextrin solution, aqueous with cosolvent or surfactant or cyclodextrin, RMβCD 75 mM, 37° C., 7 days, read-out: Concentration of Compound I (solubility)",3010 µg/mL
same,solubility at 7 days,"[7]; cyclodextrin solution, aqueous with cosolvent or surfactant or cyclodextrin, RMβCD 100 mM, 37° C., 7 days, read-out: Concentration of Compound I (solubility)",4680 µg/mL
same,solubility at 7 days,"[7]; cyclodextrin solution, aqueous with cosolvent or surfactant or cyclodextrin, RMβCD 150 mM, 37° C., 7 days, read-out: Concentration of Compound I (solubility)",8320 µg/mL
same,solubility at 7 days,"[7]; cyclodextrin solution, aqueous with cosolvent or surfactant or cyclodextrin, RMβCD 200 mM, 37° C., 7 days, read-out: Concentration of Compound I (solubility)",12000 µg/mL
same,solubility at 7 days,"[7]; cyclodextrin solution, aqueous with cosolvent or surfactant or cyclodextrin, concentrations above 8 mM βCD, read-out: Solubility of additional complex of 1:2 stoichiometry (Cpd. I: βCD)",1.5 µg/mL
same,solubility at 7 days,"[7]; cyclodextrin solution, aqueous with cosolvent or surfactant or cyclodextrin, in the presence of HPβCD, CD 2 mM, 37° C., 7 days, read-out: Concentration of Compound I (solubility)",2.4 µg/mL
same,solubility at 7 days,"[7]; cyclodextrin solution, aqueous with cosolvent or surfactant or cyclodextrin, in the presence of HPβCD, CD 4 mM, 37° C., 7 days, read-out: Concentration of Compound I (solubility)",6.8 µg/mL
same,solubility at 7 days,"[7]; cyclodextrin solution, aqueous with cosolvent or surfactant or cyclodextrin, in the presence of HPβCD, CD 8 mM, 37° C., 7 days, read-out: Concentration of Compound I (solubility)",6.6 µg/mL
same,solubility at 7 days,"[7]; cyclodextrin solution, aqueous with cosolvent or surfactant or cyclodextrin, in the presence of HPβCD, CD 10 mM, 37° C., 7 days, read-out: Concentration of Compound I (solubility)",3.4 µg/mL
same,solubility at 7 days,"[7]; cyclodextrin solution, aqueous with cosolvent or surfactant or cyclodextrin, in the presence of HPβCD, CD 12 mM, 37° C., 7 days, read-out: Concentration of Compound I (solubility)",1.6 µg/mL
same,solubility at 7 days,"[7]; cyclodextrin solution, aqueous with cosolvent or surfactant or cyclodextrin, in the presence of HPβCD, CD 16 mM, 37° C., 7 days, read-out: Concentration of Compound I (solubility)",1.5 µg/mL
same,solubility at 7 days,"[7]; cyclodextrin solution, aqueous with cosolvent or surfactant or cyclodextrin, γCD 10 mM, 37° C., 7 days, read-out: Concentration of Compound I (solubility)",1.3 µg/mL
same,solubility at 7 days,"[7]; cyclodextrin solution, aqueous with cosolvent or surfactant or cyclodextrin, γCD 100 mM, 37° C., 7 days, read-out: Concentration of Compound I (solubility)",19.5 µg/mL
same,solubility at 7 days,"[7]; cyclodextrin solution, aqueous with cosolvent or surfactant or cyclodextrin, γCD 200 mM, 37° C., 7 days, read-out: Concentration of Compound I (solubility)",29.1 µg/mL
same,solubility at 7 days,"[7]; water without cyclodextrin, water, without cyclodextrin, read-out: Solubility in water",< 0.6 µg/mL
same,solubility at 7 days,"[7]; βCD solution, aqueous with cosolvent or surfactant or cyclodextrin, βCD, maximum concentration used 4 mM, read-out: Maximum solubility",6.8 µg/mL
same,solubility at 7 days,"[7]; γCD solution, aqueous with cosolvent or surfactant or cyclodextrin, γCD 25 mM, 37° C., 7 days, read-out: Concentration of Compound I (solubility)",3.2 µg/mL
same,solubility at 7 days,"[7]; γCD solution, aqueous with cosolvent or surfactant or cyclodextrin, γCD 50 mM, 37° C., 7 days, read-out: Concentration of Compound I (solubility)",11.4 µg/mL
same,solubility at 7 days,"[7]; γCD solution, aqueous with cosolvent or surfactant or cyclodextrin, γCD 75 mM, 37° C., 7 days, read-out: Concentration of Compound I (solubility)",13.6 µg/mL
same,solubility at 7 days,"[7]; γCD solution, aqueous with cosolvent or surfactant or cyclodextrin, γCD, maximum concentration used 200 mM, read-out: Maximum solubility",29.1 µg/mL
